Data on one molecule can be found in paper PMC13184981, “Discovery and Development of a Potent LIMK2 Isoform-Specific Degrader” (ACS Chemical Biology, 2026).

Series [1] concerns the target T1, LIMK2 (Homo sapiens, UniProt P53671). As to the kind of experiment: NanoBRET cellular target engagement, LIMK2. Set-up: host or cells: HEK293T. The series is classed as cell-based.
Procedure: Gene encoding LIMK1 (Promega, NV3391) and LIMK2 (Promega, NV1531), CRBN (Promega, N2741) proteins cloned in frame with NanoLuc fusion tag at the C-terminus, were transfected into HEK293T cells using FuGENE HD (Promega, E2312) following manufacture’s protocol and proteins were allowed to express for 20 h at 37 °C and 5% CO2. […] The 10 μL of transfected cells after trypsinization and resuspending in Opti-MEM (Life Technologies, 31985070) were dispensed into each well of the 384-well plate (Greiner 781207) at a cell density of 2 × 10^5 cells/mL. For dose–response BRET measurements, compounds at various concentrations, immediately followed by Tracer K10 (Promega, Tracer DB ID: T000008) for LIMK1 and LIMK2, CRBN Tracer (Promega, Tracer DB ID: T000018) for CRBN at an optimum KD concentration chosen from TracerDB (tracerdb.org), were pipetted using an Echo acoustic dispenser (Labcyte). The system was allowed to equilibrate for 2 h at 37 °C and 5% CO2 before BRET measurements. To measure BRET signal, the NanoBRET NanoGlo Substrate (Promega, N1573) was added as per the manufacturer’s protocol, and filtered luminescence was measured on a PHERAstar plate reader (BMG Labtech) equipped with a luminescence filter pair (450 nm BP filter (donor) and 610 nm LP filter (acceptor)). For lysed NanoBRET measurement, 25 nL of Digitonin (0.05 μg/μL) was pipetted to each well using Labcyte, and the plate was incubated for 5 min at 37 °C and 5% CO2. After incubation, the BRET signals were measured by a PHERAstar plate reader following the same procedure as intact NanoBRET measurement. […] The BRET ratios are normalized to both of them in the prism output data file. Competitive displacement data were then normalized to controls and were graphed using GraphPad Prism 9 software employing a normalized 3-parameter curve fit with the following equation: Y = 100/(1 + 10̂(X – logIC50)).
For the next series, the system named is HEK293T cells. As to the kind of experiment: CellTiter-Glo 2.0 cell viability assay. The note with it: 24-h treatment, 25 nM to 20 µM. The series is classed as cell-based, human. As to the method: The effects of the PROTAC on cell viability were determined using the CellTiter-Glo 2.0 Cell Viability Assay (Promega, G9241) following the manufacturer’s protocol. […] 40 μL of assay reagent was added and incubated for 10 min at RT. Filtered luminescence was measured using a PHERAstar plate reader (BMG Labtech), and data were analyzed using GraphPad Prism 9.
Background: In ATP-based viability assays light output follows the ATP content of the culture.

The target of series [2] is T1, LIMK2. As to the kind of experiment: Western blot of endogenous LIMK2 in HuCCT1 cells. The series is classed as cell-based. As to the method:
HuCCT1 cell line was cultured in Roswell Park Memorial Institute (RPMI) 1640 medium supplemented with GlutaMAX, 10% fetal bovine serum (FBS), and 1% penicillin/streptomycin. The cell line was maintained in an incubator with 5% CO2 at 37 °C. For the treatment, 3 × 10^5 cells were plated and treated with the compounds and DMSO as the control for 6 h. The cells were then lysed using RIPA buffer (50 mM Tris-HCl pH 7.4, 150 mM NaCl, 1% Triton X-100, 1% NaDOC, 0.1% SDS, 1 mM EDTA), freshly supplemented with protease and phosphatase inhibitor cocktails (Sigma-Aldrich, Darmstadt, Germany). After 1 h incubation on ice, the lysates were centrifuged for 30 min at […], and the protein-containing supernatant was collected. The protein concentrations were determined using Protein Assay Dye Reagent Concentrate (Bradford, Bio-Rad, Hercules, CA, USA) and Pre-Diluted Protein Assay Standards: Bovine Serum Albumin (BSA) Set (Thermo Fisher Scientific, Darmstadt, Germany). Then, equal amounts of protein was mixed with Roti-Load 1 dye (Carl Roth, Karlsruhe, Germany) and 4x Laemmli Buffer (Bio-Rad, Hercules, CA, USA), denatured at 95 °C, and run on NuPAGE 4–12% bis-Tris gels (Thermo Fisher Scientific). Proteins were blotted on methanol-activated PVDF Transfer Membranes (Thermo Fisher Scientific) using the wet transfer method with the transfer buffer (Thermo Fisher Scientific) and 20% methanol. Afterward, the membranes were blocked with 5% milk or 3% BSA in 0.1% TBS-T for 1 h at RT and incubated overnight at 4 °C with primary antibodies: GAPDH (catalog no. 2118, Cell Signaling Technology, MA, USA, 1:1000 dilution), LIMK1 (catalog no. 3842, Cell Signaling Technology, 1:1000 dilution), LIMK2 (catalog no. 3845, 1:500 dilution), phospho-Cofilin (catalog no. 3313, Cell Signaling Technology, 1:1000 dilution), Cofilin (catalog no. 5175, Cell Signaling Technology, 1:1000 dilution). Then, the membranes were washed with 0.1% TBS-T and incubated with secondary horseradish-peroxidase (HRP)-conjugated antibody for 2 h (catalog no. 7074, Cell Signaling Technology, 1:3000 dilution). The membranes were washed again with 0.1% TBS-T before they were developed using X-ray films (Fujifilm, Dusseldorf, Germany).

A further series deals with T2, EGFP–LIMK2 (Homo sapiens, UniProt P53671).
T2 construct: P2A remnant (from EGFP-LIMK2-P2A-mCherry; that residues stay on LIMK2 after self-cleavage is own knowledge) (C); expressed in transfected cells; host or cells: HuCCT1 (lentiviral transduction, doxycycline-inducible pCW57 vector)
As to the kind of experiment: EGFP-LIMK2 depletion live-cell assay (Incucyte). The series is classed as cell-based. The protocol:
To enable a more comprehensive and rapid evaluation of the synthesized PROTACs, we generated a stable, doxycycline-inducible HuCCT1 cell line that expressed an N-terminally fused EGFP–LIMK2 protein. […] The degradation activity of the synthesized PROTACs set was screened at five concentrations ranging from 1 nM to 1000 nM over 72 h using live-cell imaging (Figure E).
LIMK2 was cloned into pcDNA5-EGFP-NLS-P2A-mCherry-PTS1 (Addgene plasmid #87803) by replacing the NLS sequence with the LIMK2 sequence. pcDNA5-EGFP-NLS-P2A-mCherry-PTS1 was a gift from Andrea Musacchio. Subsequently, EGFP-[…]-P2A-mCherry was cloned into the lentiviral vector pCW57-MCS1-P2A-MCS2 (Hygro) (Addgene plasmid #80922) to generate pCW57-HygB-EGFP-LIMK2-P2A-mCherry. pCW57-MCS1-P2A-MCS2 (Hygro) was a gift from Adam Karpf.
HEK293T cells (ATCC, CRL-3216) were cultured in Dulbecco’s Modified Eagle’s Medium (DMEM), while HUCCT1 cells (ATCC, CRL-1997) were cultured in RPMI medium supplemented with 10% fetal bovine serum (FBS) and 1% penicillin/streptomycin (P/S) antibiotic mix (all from Sigma-Aldrich, St. Louis, Missouri, USA). Lentiviral particles were produced in HEK293T cells using pCW57-HygB-EGFP-LIMK2-[…]P2A-mCherry, pMD2.G, and psPAX2. HUCCT1 cells were transduced with lentivirus to express LIMK2.
Briefly, the cells were plated and propagated in 6-well plates overnight. The next day, transduction with viruses was performed. Two days later, transduced cells with pCW57-HygB-EGFP-LIMK2-P2A-mCherry plasmids were selected using 100 μg/mL Hygromycin B. After at least three passages, the cells were sorted for the same populations of RFP- and GFP-expressing cells using the SH800S Cell Sorter (Sony Biotechnology, San Jose, CA, USA). Stable pools of cells were maintained in the same medium used for selection.
To assess the turnover of LIMK2, we used the Incucyte S3 or XS5 live-cell imaging system and performed the assay as previously described. , Briefly, 2,000 HUCCT1 cells stably expressing EGFP-LIMK2-P2A-mCherry were seeded per well in a 384-well plate in 50 μL of RPMI medium supplemented with 10% fetal bovine serum (FBS) and 1% penicillin/streptomycin. Cells were incubated for 24 h before treatment. To induce LIMK2 expression, 1 μg/mL of doxycycline (Sigma-Aldrich, D9891–1G) was added at the time of seeding.
After 24 h, 50 μL of medium containing either 0.1% DMSO or the desired concentration of PROTACs was added. Fluorescence in three channels–GFP, RFP, and phase contrast (cell confluence)–was monitored every 2 h for 72 h using the Incucyte S3 or XS5 (Sartorius, Germany). LIMK2 turnover was quantified by calculating the ratio of total fluorescence intensity of RFP to GFP. Each time point represents the average ratio from three technical replicates.

T2 sequence (P53671 whole entry): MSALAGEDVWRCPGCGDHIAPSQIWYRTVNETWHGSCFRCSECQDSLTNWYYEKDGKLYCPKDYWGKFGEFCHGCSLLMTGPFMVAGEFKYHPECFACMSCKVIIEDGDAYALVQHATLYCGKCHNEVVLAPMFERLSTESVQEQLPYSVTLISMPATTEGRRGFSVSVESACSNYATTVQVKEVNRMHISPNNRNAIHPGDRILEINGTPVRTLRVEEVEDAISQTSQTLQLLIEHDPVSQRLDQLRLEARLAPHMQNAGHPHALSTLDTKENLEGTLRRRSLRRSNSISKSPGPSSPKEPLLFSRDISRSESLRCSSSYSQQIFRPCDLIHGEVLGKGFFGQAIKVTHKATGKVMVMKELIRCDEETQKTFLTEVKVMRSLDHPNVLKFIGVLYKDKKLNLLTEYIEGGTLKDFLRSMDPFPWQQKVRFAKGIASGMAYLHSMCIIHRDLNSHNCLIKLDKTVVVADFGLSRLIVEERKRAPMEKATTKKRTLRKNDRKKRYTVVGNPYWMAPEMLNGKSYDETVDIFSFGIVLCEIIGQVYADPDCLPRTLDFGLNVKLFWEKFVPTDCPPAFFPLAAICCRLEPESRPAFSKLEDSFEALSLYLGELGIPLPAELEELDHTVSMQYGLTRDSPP
T1 sequence (P53671 whole entry): as above

Broadly, the IC50 is the concentration that inhibits the measured activity by half. The low end stands for inhibition by little substance, the high end for a need for much substance. As for `Cc1c(OCc2cn(CCCCC(=O)Nc3ncc(-c4cc(C(F)F)nn4-c4c(Cl)cccc4Cl)s3)nn2)cccc1N1CCC(=O)NC1=O` [22b], the IC50 at LIMK2 [1] stood at 80 nM. Moreover, on LIMK2 [1] (NanoBRET, LIMK2 vs LIMK1), the “LIMK2 binary IC50 stronger than LIMK1” value turned out to be 5 fold. The cytotoxic effects entry in the series with HEK293T cells is given as “no cytotoxic effects”. In addition, at LIMK2 [2] (HuCCT1, 6 h, Western blot), the “concentration giving near-complete depletion of endogenous LIMK2” value is on record as 10 nM. Besides, the “LIMK2 degradation (Western blot)” value at LIMK2 [2] (HuCCT1, 6 h treatment) is “strong LIMK2-selective degradation”. Moreover, the Dmax is 88.2% at EGFP–LIMK2 (10 nM PROTAC), 97.6% at EGFP–LIMK2 (100 nM PROTAC) and 98.5% on EGFP–LIMK2 (1000 nM PROTAC). In addition, the “time to maximum degradation after PROTAC treatment” value at EGFP–LIMK2 (EGFP–LIMK2 monitored over 72 h) is “approximately 60 h”. Moreover, the “EGFP–LIMK2 degradation with MLN4924 cotreatment” value on EGFP–LIMK2 (PROTAC 10, 100 and 1000 nM + MLN4924 1 μM) is “no LIMK2 degradation”.
